Data published in ChEMBL document CHEMBL5465560, “Selectivity Literature for EUbOPEN Chemogenomic Library” (2024).
Each block holds one compound with its values, some of them ahead of it.

Columns and labels:
[1] = biological target: Mitotic checkpoint serine/threonine-protein kinase BUB1 (Homo sapiens, UniProt O43683); assay: Selectivity interaction (KinomeScan (DiscoverX)) EUB0001049a BUB1; settings: at 1 µM
[2] = biological target: T1, Ephrin type-B receptor 4 (Homo sapiens) (UniProt P54760); assay: Selectivity interaction (Kinase panel (Invitrogen)) EUB0000639a EPHB4; settings: at 200 nM
T1 sequence (whole entry): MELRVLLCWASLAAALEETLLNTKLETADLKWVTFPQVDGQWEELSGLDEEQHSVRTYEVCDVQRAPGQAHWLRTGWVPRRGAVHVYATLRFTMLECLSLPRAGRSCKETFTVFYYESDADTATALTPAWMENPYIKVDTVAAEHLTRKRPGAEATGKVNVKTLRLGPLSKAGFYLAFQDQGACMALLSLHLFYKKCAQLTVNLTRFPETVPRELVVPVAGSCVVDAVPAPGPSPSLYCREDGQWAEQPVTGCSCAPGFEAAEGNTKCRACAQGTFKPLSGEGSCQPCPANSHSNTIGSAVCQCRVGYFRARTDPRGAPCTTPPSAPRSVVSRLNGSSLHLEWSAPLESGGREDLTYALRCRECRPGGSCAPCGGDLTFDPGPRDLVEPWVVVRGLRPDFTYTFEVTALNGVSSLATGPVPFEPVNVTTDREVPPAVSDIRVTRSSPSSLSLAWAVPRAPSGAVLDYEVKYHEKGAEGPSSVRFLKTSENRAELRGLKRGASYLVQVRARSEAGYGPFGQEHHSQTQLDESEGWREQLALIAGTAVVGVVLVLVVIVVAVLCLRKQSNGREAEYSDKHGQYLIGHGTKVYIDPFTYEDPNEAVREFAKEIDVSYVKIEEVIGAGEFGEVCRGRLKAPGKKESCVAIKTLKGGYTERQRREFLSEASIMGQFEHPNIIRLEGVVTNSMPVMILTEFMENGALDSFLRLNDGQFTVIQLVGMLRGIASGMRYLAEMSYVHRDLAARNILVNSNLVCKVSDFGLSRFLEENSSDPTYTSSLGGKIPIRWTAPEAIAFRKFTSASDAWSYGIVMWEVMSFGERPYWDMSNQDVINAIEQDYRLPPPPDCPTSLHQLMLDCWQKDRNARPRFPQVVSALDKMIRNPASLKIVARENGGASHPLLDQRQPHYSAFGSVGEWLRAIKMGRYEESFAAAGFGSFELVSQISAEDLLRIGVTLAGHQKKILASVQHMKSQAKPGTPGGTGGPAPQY

[3] = biological target: Cyclin-dependent kinase 18 (Homo sapiens) (UniProt Q07002); assay: Selectivity interaction (ActivX KiNativ screen (kinase selectivity in THP-1 cell lysates)) EUB0000639a CDK18; format: subcellular; settings: lysate, at 0.04 µM
Chain of Cyclin-dependent kinase 18 (Homo sapiens) (Q07002 whole entry): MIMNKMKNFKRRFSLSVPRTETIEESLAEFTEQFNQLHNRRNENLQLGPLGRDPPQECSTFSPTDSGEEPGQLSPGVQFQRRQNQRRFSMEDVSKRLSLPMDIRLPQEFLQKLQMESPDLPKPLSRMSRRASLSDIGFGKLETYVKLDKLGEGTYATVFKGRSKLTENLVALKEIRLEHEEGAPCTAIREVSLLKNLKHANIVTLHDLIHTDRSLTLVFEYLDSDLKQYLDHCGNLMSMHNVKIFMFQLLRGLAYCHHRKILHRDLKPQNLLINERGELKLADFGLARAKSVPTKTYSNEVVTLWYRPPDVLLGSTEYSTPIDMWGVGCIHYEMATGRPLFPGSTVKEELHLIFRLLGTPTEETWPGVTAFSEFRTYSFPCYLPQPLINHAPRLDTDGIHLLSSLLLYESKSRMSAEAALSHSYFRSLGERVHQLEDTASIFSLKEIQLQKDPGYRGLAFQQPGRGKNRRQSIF

[4] = biological target: T2, Serine/threonine-protein kinase ULK1 (Homo sapiens) (UniProt O75385); assay: Selectivity interaction (ActivX KiNativ screen (kinase selectivity in THP-1 cell lysates)) EUB0000639a ULK1; format: subcellular; settings: lysate, at 5 µM
T2 sequence (whole entry): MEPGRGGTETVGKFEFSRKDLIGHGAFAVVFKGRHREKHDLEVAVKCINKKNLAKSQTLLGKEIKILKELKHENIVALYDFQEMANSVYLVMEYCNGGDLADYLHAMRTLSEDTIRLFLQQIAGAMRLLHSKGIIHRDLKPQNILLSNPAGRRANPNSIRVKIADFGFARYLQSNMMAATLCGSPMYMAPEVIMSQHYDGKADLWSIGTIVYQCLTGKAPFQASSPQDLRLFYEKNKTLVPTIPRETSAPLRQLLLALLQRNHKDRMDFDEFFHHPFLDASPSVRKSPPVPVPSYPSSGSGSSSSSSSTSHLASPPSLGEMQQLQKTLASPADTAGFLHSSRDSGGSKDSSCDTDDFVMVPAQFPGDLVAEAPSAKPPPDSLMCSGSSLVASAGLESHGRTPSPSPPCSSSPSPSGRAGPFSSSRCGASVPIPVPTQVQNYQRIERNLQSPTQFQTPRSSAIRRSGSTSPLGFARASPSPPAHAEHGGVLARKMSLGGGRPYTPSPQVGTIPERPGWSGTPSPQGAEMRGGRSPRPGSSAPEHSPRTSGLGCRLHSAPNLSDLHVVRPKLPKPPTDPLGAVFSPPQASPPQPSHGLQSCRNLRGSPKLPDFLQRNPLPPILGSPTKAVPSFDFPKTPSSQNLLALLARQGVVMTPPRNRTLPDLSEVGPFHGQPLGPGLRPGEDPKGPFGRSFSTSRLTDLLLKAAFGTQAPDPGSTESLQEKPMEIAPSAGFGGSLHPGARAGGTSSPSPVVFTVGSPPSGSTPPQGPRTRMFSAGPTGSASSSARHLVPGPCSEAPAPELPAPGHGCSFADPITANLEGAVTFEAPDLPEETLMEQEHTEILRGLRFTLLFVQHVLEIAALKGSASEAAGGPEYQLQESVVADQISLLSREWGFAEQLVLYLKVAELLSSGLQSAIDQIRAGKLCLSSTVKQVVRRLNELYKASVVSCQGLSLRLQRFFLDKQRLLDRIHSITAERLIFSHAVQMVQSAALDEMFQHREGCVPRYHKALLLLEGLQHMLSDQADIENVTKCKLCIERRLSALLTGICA

[5] = biological target: RAF proto-oncogene serine/threonine-protein kinase (Homo sapiens) (UniProt P04049); assay: Selectivity interaction (Kinase panel (Eurofins)) EUB0001564a RAF1; settings: at 1 µM
Chain of RAF proto-oncogene serine/threonine-protein kinase (Homo sapiens) (P04049 whole entry): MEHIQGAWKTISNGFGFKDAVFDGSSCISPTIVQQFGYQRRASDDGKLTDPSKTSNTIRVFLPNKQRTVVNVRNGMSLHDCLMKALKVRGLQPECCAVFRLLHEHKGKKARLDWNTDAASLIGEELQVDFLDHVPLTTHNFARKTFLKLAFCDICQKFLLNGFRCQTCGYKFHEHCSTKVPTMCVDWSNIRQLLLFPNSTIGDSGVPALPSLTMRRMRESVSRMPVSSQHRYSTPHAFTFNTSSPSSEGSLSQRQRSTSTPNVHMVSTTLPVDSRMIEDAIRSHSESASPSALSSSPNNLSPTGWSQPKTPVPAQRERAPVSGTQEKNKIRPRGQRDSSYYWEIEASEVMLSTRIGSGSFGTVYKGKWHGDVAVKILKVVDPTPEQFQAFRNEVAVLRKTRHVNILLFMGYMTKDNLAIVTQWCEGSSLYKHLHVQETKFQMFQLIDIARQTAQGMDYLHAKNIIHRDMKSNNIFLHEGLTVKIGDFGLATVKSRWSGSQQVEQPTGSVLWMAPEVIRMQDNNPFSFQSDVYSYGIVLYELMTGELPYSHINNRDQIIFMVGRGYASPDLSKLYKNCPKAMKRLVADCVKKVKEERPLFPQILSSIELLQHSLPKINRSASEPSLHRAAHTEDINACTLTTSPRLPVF

[6] = biological target: RAC-alpha serine/threonine-protein kinase (Homo sapiens, UniProt P31749); assay: Selectivity interaction (KinomeScan (DiscoverX)) EUB0000618a AKT1; settings: at 10 µM
Chain of RAC-alpha serine/threonine-protein kinase (P31749 whole entry): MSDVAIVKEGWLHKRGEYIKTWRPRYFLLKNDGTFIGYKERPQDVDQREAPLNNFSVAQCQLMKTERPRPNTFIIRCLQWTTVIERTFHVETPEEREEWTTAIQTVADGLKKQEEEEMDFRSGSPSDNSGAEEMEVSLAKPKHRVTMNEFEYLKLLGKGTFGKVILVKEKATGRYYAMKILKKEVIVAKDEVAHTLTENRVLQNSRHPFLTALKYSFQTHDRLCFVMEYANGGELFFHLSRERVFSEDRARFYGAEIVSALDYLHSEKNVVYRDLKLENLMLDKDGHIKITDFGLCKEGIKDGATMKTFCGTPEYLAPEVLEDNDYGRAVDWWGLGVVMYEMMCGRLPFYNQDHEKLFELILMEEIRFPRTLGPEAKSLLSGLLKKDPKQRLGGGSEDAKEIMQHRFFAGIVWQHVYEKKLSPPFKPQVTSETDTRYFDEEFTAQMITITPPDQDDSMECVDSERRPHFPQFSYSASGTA

[7] = biological target: T3, Serine/threonine-protein kinase 3 (Homo sapiens) (UniProt Q13188); assay: Selectivity interaction (KinomeScan (DiscoverX)) EUB0000618a STK3; settings: at 10 µM
T3 sequence (whole entry): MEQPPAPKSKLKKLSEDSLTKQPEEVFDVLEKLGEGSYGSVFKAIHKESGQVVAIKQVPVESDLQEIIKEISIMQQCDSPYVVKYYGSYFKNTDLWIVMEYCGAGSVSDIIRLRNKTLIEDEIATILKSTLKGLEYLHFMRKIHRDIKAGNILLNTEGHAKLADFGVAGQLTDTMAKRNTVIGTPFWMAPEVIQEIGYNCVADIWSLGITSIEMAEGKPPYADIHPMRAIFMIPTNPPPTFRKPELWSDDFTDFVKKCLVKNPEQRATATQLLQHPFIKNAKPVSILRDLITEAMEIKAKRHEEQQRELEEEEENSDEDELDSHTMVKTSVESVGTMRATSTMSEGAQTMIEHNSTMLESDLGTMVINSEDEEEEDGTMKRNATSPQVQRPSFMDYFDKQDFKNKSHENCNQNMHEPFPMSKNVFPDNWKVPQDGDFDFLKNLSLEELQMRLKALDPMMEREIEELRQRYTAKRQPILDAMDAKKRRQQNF

[8] = biological target: Serine/threonine-protein kinase 26 (Homo sapiens, UniProt Q9P289); assay: Selectivity interaction (KinomeScan (DiscoverX)) EUB0000607a STK26; settings: at 10 µM
Chain of Serine/threonine-protein kinase 26 (Q9P289 2-416 limits assumed): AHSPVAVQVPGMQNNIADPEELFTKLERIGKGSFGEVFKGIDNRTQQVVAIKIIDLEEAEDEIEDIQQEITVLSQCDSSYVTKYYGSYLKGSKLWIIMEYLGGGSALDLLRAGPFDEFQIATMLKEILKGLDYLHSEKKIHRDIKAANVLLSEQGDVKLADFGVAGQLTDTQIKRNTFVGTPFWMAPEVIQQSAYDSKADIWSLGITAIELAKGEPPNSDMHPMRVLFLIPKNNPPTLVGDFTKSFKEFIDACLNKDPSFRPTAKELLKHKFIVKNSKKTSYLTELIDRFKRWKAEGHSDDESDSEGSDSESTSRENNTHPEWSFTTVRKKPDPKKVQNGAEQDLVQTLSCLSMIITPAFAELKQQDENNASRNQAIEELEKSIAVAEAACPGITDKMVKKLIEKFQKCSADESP

Chain of Mitotic checkpoint serine/threonine-protein kinase BUB1 (O43683 whole entry, looked up): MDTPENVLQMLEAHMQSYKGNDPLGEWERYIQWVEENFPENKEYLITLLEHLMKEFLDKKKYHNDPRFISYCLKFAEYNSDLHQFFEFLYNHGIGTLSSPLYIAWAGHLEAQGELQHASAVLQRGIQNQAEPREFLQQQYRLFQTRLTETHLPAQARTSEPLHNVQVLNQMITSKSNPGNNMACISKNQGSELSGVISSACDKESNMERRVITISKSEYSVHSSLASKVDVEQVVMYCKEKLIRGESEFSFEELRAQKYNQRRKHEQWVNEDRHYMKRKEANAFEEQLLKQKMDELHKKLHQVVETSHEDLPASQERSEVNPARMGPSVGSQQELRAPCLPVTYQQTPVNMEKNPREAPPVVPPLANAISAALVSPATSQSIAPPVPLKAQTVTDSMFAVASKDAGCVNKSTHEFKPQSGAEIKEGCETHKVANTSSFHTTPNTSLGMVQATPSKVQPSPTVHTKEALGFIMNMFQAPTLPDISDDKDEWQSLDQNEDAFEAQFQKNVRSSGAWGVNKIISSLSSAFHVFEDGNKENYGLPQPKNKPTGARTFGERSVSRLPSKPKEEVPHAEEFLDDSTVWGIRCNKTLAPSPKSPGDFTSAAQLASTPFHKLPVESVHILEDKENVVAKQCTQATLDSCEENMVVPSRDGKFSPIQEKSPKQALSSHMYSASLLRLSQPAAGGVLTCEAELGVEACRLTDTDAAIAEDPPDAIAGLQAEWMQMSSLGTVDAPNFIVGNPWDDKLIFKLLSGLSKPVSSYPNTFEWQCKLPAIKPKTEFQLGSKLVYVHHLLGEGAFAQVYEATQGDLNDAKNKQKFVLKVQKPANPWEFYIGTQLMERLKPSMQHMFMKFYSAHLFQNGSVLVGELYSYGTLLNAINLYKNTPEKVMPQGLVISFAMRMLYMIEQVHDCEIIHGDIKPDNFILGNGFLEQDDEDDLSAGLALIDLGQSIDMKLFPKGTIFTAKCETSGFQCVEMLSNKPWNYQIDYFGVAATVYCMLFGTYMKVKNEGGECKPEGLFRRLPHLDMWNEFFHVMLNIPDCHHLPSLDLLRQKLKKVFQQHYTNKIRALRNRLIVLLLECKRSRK

Structure (SMILES): COc1cc(Nc2nc(C)cc(-c3cnn4nc(OC)ccc34)n2)cc(C(F)(F)F)c1
% of control [1]: 67%

% of inhibition [2]: 4.33% | % of inhibition [3]: 1.7% | % of inhibition [4]: -74.1%
Structure (SMILES): CC[C@@H]1[C@H](F)C(=O)N[C@@H]1COc1nccc2cc(C(N)=O)c(OC)cc12 [ZIMLOVISERTIB]

% of inhibition [5]: 36%
Structure (SMILES): CC[C@@H](Nc1c(C#N)c(-c2ccc(-c3cccc(C)c3F)cc2)nc2cnccc12)C(=O)O [BAY-091]

Structure (SMILES): O[C@H]1CC[C@H](Nc2ncc3nc(Nc4c(F)cc(F)cc4F)n([C@H]4CCOC4)c3n2)CC1
% of control [6]: 72% | % of control [7]: 73%

Structure (SMILES): CNC(=O)Nc1ccc(-c2nc(N3CC4CCC(C3)O4)c3cnn(C4CCC5(CC4)OCCO5)c3n2)cc1
% of control [8]: 70%
